Data taken from US8901155B2, “Method for treating a TRPV1-mediated disease” (Santen Pharmaceutical Co., Ltd., priority 2007, dated 2014).
Blank lines part the entries; values can stand above or below the compound they belong to.

Tests used:
[1] = molecular target: T1, human TRPV1 (Homo sapiens, UniProt Q8NER1); assay: Intracellular calcium influx in human TRPV1-expressing CHO cells; type: cell-based; conditions: final concentration 1 μM; relative to 1 μM capsaicin
T1 construct: expressed in transfected cells; host or cells: CHO cells
Text: 3. Measurement of Intracellular Calcium Influx by Present Compound in Human TRPV1-Expressing Cells
It is known that TRPV1 is an ion channel receptor and by the activation of TRPV1, intracellular calcium ion influx occurs. According to the method of Phelps et al. (Eur. J. Pharmacol., 513: 57-66, 2005), the action of the present compound of activating human TRPV1 was studied using CHO cells transfected with a gene encoding human TRPV1.
CHO cells were suspended in DMEM and seeded in a culture plate at 3.5×10^4 cells/well. A test compound or a control compound was dissolved in DMSO to prepare a DMSO solution, and times concentrated test compound-containing liquid and control compound-containing liquid each of which was composed of HBSS and contained the thus prepared DMSO solution were prepared.
To the CHO cells, a calcium indicator was added, and the resulting mixture was incubated at 37° C. for 30 minutes, and then further incubated at 22° C. for 30 minutes to achieve equilibration. Subsequently, one-tenth volume of the test compound-containing liquid, control compound-containing liquid (final concentration: 1 μM), or HBSS solution was added thereto, and a change in the fluorescence intensity of the intracellular calcium concentration indicator was measured.
(Calcium influx(%))=((fluorescence intensity in the presence of test compound)−(background fluorescence intensity)/(fluorescence intensity in the presence of control compound)−(background fluorescence intensity))×100

[2] = molecular target: T2, vanilloid receptor (Rattus norvegicus, UniProt O35433); assay: Binding activity in rat spinal cord membrane specimen (3H-RTX competition)
T2 construct: Rat spinal cord was homogenized according to a common procedure; from tissue; host or cells: rat spinal cord membrane specimen

[3] = Rat model of indomethacin-induced gastric mucosal injury; type: in vivo; conditions: indomethacin 30 mg/kg s.c., 6 hours
Protocol: 7. Effect in Rat Model of Gastrointestinal Dysfunction
A model of indomethacin-induced gastric mucosal injury is a model of gastrointestinal dysfunction widely used in the evaluation of drug efficacy of a therapeutic agent for ulcer. According to the method of Hoshino et al. (Folia Pharmacologica Japonica, Vol. 97, p. 287, 1991), the effect of the present compound in a rat model of indomethacin-induced gastric mucosal injury was studied.
A test compound-containing liquid was prepared immediately before use by suspending a test compound in a 1% aqueous methyl cellulose solution which is a vehicle. […]
To a rat fasted for 24 hours, the test compound-containing liquid, control compound-containing liquid, or vehicle (pathological control group) was orally administered, and immediately thereafter, indomethacin (Wako Pure Chemical Industries, Ltd.) was subcutaneously administered at a dose of 30 mg/kg. […] The length of the longest diameter of the site of a lesion dyed in blue including an ecchymosis was measured macroscopically using calipers.
A mean value of the sum of the longest diameters of the sites of lesions was obtained for each animal and was defined as an ulcer index. Further, a ratio of inhibition of gastric mucosal injury was calculated from the following equation. […]

[4] = molecular target: T3, TRPV1 (Rattus norvegicus, UniProt O35433); assay: CGRP release in cultured rat dorsal root ganglion-derived neurons; type: cell-based
T3 construct: A dorsal root ganglion isolated from the spinal cord of a rat was sectioned and enzymatically treated; endogenous in cells; host or cells: primary cultured rat dorsal root ganglion neurons
Text: 2. Effect of Present Compound on TRPV1 Agonist-Induced CGRP Release System Using Rat Dorsal Root Ganglion-Derived Neurons It is known that TRPV1 is expressed in dorsal root ganglion (DRG), and that by the activation of TRPV1, CGRP which is a neurotransmitter is released from a nerve terminal. According to the method of Ahluwalia et al., (European Journal of Neuroscience, Vol. 17, p. 2611, 2003), the CGRP releasing activity of the present compound in cultured neurons derived from rat DRG was studied. A test compound was weighed and dissolved in DMSO. The resulting solution was diluted with a medium, whereby a test compound-containing liquid was prepared. Each test compound-containing liquid was prepared such that 0.4% DMSO was contained therein as well. […] A dorsal root ganglion isolated from the spinal cord of a rat was sectioned and enzymatically treated with a collagenase/DNase I solution at 37° C. for 1 hour, and then with a trypsin/DNase I solution at 37° C. for 20 minutes. The released neurons were washed and collected, and then seeded in a poly-D-lysine/laminin-coated culture dish and cultured under conditions of 37° C. and 5% CO2 in a neuronal medium (NGF/NCS medium) supplemented with a nerve growth factor for 1 day. The medium was replaced with an NGF/NCS medium containing cytosine arabinoside, and the neurons were further cultured for 2 days. […]

T1 sequence (Q8NER1 whole entry): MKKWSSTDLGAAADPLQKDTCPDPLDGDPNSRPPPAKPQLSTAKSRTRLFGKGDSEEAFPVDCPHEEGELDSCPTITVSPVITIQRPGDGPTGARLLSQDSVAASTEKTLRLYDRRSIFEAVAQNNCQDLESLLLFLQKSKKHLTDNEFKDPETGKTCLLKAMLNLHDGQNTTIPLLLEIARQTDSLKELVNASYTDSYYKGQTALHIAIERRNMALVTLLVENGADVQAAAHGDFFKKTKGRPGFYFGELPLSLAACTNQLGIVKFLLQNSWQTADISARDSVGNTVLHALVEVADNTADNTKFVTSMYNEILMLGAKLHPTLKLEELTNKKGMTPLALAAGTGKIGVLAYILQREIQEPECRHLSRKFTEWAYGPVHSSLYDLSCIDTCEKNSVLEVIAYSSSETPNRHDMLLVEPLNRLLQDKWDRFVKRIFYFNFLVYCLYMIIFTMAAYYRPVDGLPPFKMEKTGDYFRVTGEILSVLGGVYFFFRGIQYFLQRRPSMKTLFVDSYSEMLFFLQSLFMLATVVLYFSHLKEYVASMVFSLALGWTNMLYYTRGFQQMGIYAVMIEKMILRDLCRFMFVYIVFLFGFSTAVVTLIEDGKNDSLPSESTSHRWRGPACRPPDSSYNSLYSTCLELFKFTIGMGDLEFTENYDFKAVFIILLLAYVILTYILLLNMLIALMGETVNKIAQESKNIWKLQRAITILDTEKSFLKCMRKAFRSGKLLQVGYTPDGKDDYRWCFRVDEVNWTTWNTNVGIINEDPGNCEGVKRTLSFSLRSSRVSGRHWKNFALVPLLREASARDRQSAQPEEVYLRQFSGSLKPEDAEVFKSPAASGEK
T2 sequence (O35433 whole entry): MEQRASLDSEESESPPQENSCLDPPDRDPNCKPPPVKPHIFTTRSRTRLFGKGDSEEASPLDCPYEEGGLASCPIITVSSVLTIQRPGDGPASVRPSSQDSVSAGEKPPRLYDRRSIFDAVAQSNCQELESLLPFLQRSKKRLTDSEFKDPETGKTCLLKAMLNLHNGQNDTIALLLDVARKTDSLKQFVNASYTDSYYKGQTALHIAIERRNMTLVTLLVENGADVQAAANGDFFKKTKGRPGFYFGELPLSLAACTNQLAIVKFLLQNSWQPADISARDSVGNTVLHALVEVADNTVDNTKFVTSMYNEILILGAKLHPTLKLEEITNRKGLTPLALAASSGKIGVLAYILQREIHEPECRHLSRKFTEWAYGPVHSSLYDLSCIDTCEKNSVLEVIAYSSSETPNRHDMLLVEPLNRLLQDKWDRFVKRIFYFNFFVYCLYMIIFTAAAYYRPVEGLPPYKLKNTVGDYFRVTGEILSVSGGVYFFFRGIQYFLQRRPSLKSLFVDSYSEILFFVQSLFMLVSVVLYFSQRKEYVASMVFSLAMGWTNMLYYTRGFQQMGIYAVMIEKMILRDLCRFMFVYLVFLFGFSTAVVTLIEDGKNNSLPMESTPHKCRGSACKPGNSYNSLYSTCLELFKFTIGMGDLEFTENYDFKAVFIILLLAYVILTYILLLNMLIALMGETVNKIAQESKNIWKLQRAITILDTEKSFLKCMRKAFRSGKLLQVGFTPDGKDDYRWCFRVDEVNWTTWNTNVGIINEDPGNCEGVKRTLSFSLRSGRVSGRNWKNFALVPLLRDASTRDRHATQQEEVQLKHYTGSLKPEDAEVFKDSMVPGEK
T3 sequence (O35433 whole entry): as above

- Calcium influx (%) [1]: 76.6%
SMILES: CCCCCN(CCC12CC3CC(CC(C3)C1)C2)C(=O)NCC(C)Cc1ccncc1 (single isomer, unassigned; (+)) [Compound 6, (+)-1-[2-(1-adamantyl)ethyl]-3-[2-methyl-3-(4-pyridyl)propyl]-1-pentylurea]

- IC50 ([2]; 0.2 nM 3H-RTX liquid, 37° C. 60 minutes, mean±SEM of assays performed in triplicate, read-out: IC50 value to the vanilloid receptor in the rat spinal cord neuronal membrane specimen): 191 ± 28 nM
- Ki ([2]; from IC50, dissociation constant 0.046 nM, mean±SEM, read-out: Ki value to the vanilloid receptor in the rat spinal cord neuronal membrane specimen): 35.8 ± 5.2 nM
- Hill coefficient ([2]; nonlinear regression of inhibition curve): 1.83±0.449
- CGRP release in competitive inhibition assay with capsazepine ([4]; 10 μM (final concentration) capsazepine, FIG. 3): antagonized by capsazepine
- CGRP release ([4]; absence of capsazepine, 10 minutes culture, FIG. 2): released CGRP in a dose-dependent manner
SMILES: CCCCCN(CCC12CC3CC(CC(C3)C1)C2)C(=O)NCCCc1ccncc1 [Compound 1, 1-[2-(1-adamantyl)ethyl]-1-pentyl-3-[3-(4-pyridyl)propyl]urea]
- inhibition ratio (%) of gastric mucosal injury ([3]; 1 mg/kg oral): 67.41%

- Calcium influx (%) [1]: 74.1%
SMILES: O=C(NCCCc1ccncc1)N(CCC(F)(F)F)CCC12CC3CC(CC(C3)C1)C2 [Compound 2, 1-[2-(1-adamantyl)ethyl]-3-[3-(4-pyridyl)propyl]-1-(3,3,3-trifluoropropyl)urea]

- Calcium influx (%) [1]: 59.8%
SMILES: CCCN(CCCC12CC3CC(CC(C3)C1)C2)C(=O)NCCCc1ccncc1 [Compound 3, 1-[3-(1-adamantyl)propyl]-1-propyl-3-[3-(4-pyridyl)propyl]urea]

- Calcium influx (%) [1]: 43.9%
SMILES: CCCCCN(CCC12CC3CC(CC(C3)C1)C2)C(=O)NC(C)CCc1ccncc1 (stereo not shown) [Compound 4, 1-[2-(1-adamantyl)ethyl]-3-[1-methyl-3-(4-pyridyl)propyl]-1-pentylurea]

- Calcium influx (%) [1]: 64.3%
SMILES: CCCCCN(CCC12CC3CC(CC(C3)C1)C2)C(=O)NCC(C)Cc1ccncc1 (stereo not shown) [Compound 5, 1-[2-(1-adamantyl)ethyl]-3-[2-methyl-3-(4-pyridyl)propyl]-1-pentylurea]

- Calcium influx (%) [1]: 36.1%
SMILES: CCCCCN(CCC12CC3CC(CC(C3)C1)C2)C(=O)NC/C=C/c1ccncc1 [Compound 7, (E)-1-[2-(1-adamantyl)ethyl]-1-pentyl-3-[3-(4-pyridyl)-2-propenyl]urea]

SMILES: COc1ccc2[nH]c([S+]([O-])Cc3ncc(C)c(OC)c3C)nc2c1 (stereo not shown) [Omeprazole, omeprazole, reference compound]
- inhibition ratio (%) of gastric mucosal injury ([3]; 10 mg/kg oral): 69.22%
